This note sets out measurements from US12247029B2, “Heterocyclic compounds as class II phosphoinositide 3-kinase inhibitors” (Forschungsverbund Berlin e.V., priority 2018, dated 2025).

In general, IC50 refers to the point on the concentration scale where inhibition reaches its midpoint. One may read the inhibition as the drop in the measured response relative to a control, in per cent.

The target in this test is PI3KC2α Δ1-298 (Homo sapiens (Human), UniProt O00443). The experiment in a line: ADP-Glo kinase assay with purified PI3KC2α Δ1-298. The test is classed as biochemical. The note with it: for IC50: read-out: IC50 (PI3KC2α; ADP-Glo™ assay). The procedure: Previous studies have shown that PI3KC2α can utilize phosphatidylinositol (PI) or phosphatidylinositol 4-phosphate [PI(4)P] to produce PI(3)P or PI(3,4)P2 respectively but with a preference for PI(3,4)P2 production. To verify that purified PI3KC2α Δ1-298 is active, a radioactive kinase assay was performed with PI as a substrate and different amounts of purified PI3KC2α Δ1-298. The lipid product [PI(3)P] was separated on TLC plates, and the PI(3)P signal was correlated with the amount of PI3KC2α used (FIG. 4A). […] After having confirmed the activity of purified PI3KC2α Δ1-298, an assay suitable for high content screens in multiwell format (ADP-Glo™ assay) was established. The ADP-Glo™ assay has been used for universal detection of ATP hydrolysis. This assay measures ATP hydrolysis occurring during a kinase reaction. For detection, generated ADP is re-converted into ATP with the […] and converted into light by the Ultra-Glo™ Luciferase reagent. The luminescent signal reports kinase activity (FIG. 4B).
Chain of PI3KC2α Δ1-298 (O00443 299-1686): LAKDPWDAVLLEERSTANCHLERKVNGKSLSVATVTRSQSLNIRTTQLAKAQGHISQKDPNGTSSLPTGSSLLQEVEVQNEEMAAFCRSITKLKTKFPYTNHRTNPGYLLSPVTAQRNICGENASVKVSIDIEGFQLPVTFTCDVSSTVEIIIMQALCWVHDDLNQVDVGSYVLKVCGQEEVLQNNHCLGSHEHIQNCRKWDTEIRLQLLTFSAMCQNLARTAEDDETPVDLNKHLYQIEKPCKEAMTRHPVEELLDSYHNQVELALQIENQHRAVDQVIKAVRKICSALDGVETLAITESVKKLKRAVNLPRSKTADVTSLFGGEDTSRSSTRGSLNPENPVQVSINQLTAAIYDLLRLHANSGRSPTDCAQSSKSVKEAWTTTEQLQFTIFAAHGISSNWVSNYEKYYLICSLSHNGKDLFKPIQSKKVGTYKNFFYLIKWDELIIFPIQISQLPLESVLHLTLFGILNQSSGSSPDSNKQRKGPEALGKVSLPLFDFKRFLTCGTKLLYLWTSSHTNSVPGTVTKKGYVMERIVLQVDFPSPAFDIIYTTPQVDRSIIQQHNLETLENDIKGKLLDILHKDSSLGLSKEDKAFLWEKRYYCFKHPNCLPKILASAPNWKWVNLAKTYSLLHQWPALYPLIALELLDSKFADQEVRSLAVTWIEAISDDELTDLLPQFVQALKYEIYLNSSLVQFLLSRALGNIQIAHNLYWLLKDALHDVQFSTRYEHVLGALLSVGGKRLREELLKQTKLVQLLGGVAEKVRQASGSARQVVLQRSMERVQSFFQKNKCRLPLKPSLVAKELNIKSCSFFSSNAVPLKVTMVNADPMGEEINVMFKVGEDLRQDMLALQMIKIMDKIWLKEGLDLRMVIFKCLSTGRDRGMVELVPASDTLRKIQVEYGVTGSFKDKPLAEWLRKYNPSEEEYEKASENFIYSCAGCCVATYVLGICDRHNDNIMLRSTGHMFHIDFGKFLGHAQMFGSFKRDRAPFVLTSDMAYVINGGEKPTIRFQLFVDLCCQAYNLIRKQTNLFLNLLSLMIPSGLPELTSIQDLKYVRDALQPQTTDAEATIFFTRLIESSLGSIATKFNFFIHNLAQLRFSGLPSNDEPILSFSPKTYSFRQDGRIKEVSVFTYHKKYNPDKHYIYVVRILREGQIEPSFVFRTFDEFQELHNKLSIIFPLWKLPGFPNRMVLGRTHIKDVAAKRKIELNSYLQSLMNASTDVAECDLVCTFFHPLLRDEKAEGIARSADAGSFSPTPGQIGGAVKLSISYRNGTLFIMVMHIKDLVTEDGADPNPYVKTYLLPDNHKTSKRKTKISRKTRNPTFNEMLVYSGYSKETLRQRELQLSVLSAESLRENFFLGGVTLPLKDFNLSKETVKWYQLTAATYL
The ADP-Glo™ assay was first used to determine the linear correlation range of signal with different amounts of kinase, and then to assess the Kms for ATP and for PI. […] Further optimization of this assay allowed us to carry out medium-to-high throughput screening using low amounts of purified enzyme (at fixed concentrations of: ATP=40 μM, PI=200 μM, PI3KC2α A1−298=10 ng/μl).
Primary screens were performed using the ADP-Glo™ assay in a 384-well format. 37, 224 small molecules were screened for their ability to inhibit kinase activity of PI3KC2α Δ1-298. The concentration of each compound used in the primary screens was 10 μM. Kinase incubations with ATP but without PI were used as negative control samples. This primary screen turned out to be robust with an average z′ factor of 0.57, and therefore judged as successful.
ADP-Glo kinase assay was performed as described by the manufacturer's protocol. Briefly, the kinase assay was performed with a […] of liver PI/ATP/purified PI3KC2α for 20 min in kinase reaction buffer described above. To deplete the remaining ATP from the reaction, 5 μl of […] was added to the kinase reaction mixture and incubated for 40 min. For detection, the generated ADP is re-converted into ATP and converted into light by the Ultra-Glo™ luciferase in kinase detection reagent. The luminescent signal positively correlates with kinase activity. All reactions are performed in Corning® 384 well-white plates.
On the technique in general: ADP-Glo turns the ADP formed in a reaction into a luminescent signal.

For `O=C(CSc1nc2nccnc2c(=O)n1CCc1ccccc1)Nc1ncc(Cl)s1` [Example Compound 45, N-(5-Chlorothiazol-2-yl)-2-((4-oxo-3-phenethyl-3,4-dihydropteridin-2-yl)thio)acetamide], the half-maximal inhibitory concentration (IC50) came to 35000 nM.

As for `O=C(CSc1nc2nccnc2c(=O)n1CCc1ccccc1)Nc1ccccc1F` [Example Compound 15, N-(2-Fluorophenyl)-2-((4-oxo-3-phenethyl-3,4-dihydropteridin-2-yl)thio)acetamide], the 50% inhibitory concentration (IC50) turned out to be 6000 nM.

On to `O=C(CSc1nc2nccnc2c(=O)n1CCc1ccccc1)Nc1nc2c(F)cc(F)cc2s1` [Example Compound 57, N-(4,6-Difluorobenzo[d]thiazol-2-yl)-2-((4-oxo-3-phenethyl-3,4-dihydropteridin-2-yl)thio)acetamide], for which the 50% inhibitory concentration (IC50) worked out at 3400 nM.

Regarding `O=C(CSc1nc2ncccc2c(=O)n1CCc1ccccc1)Nc1nccs1` [Example Compound 54, 2-((4-Oxo-3-phenethyl-3,4-dihydropyrido[2,3-d]pyrimidin-2-yl)thio)-N-(thiazol-2-yl)acetamide], the half-maximal inhibitory concentration (IC50) amounted to 820 nM.

In the case of `CS(=O)(=O)c1ccc(-n2c(SCc3nc4ccccc4[nH]3)nc3nccnc3c2=O)cc1` [Example Compound 79, 2-(((1H-Benzo[d]imidazol-2-yl)methyl)thio)-3-(4-(methylsulfonyl)phenyl)pteridin-4(3H)-one], the IC50 was 920 nM.

On to `O=C(CSc1nc2nccnc2c(=O)n1CCc1ccccc1)Nc1nc(-c2ccc(Cl)cc2)cs1` [Example Compound 49, N-(4-(4-Chlorophenyl)thiazol-2-yl)-2-((4-oxo-3-phenethyl-3,4-dihydropteridin-2-yl)thio)acetamide], for which the IC50 was found to be 7100 nM.

`Cc1nc(CSc2nc3nccnc3c(=O)n2CCc2ccccc2)[nH]c1C` [Example Compound 77, 2-(((4,5-Dimethyl-1H-imidazol-2-yl)methyl)thio)-3-phenethylpteridin-4(3H)-one]: the IC50 was found to be 23000 nM.

In the case of `O=c1c2nccnc2nc(SCc2nc3ccccc3[nH]2)n1C1Cc2ccccc2C1` [Example Compound 88, 2-(((1H-Benzo[d]imidazol-2-yl)methyl)thio)-3-(2,3-dihydro-1H-inden-2-yl)pteridin-4(3H)-one], the half-maximal inhibitory concentration (IC50) came out at 130 nM.

For the compound `Cc1nnc(NS(=O)(=O)c2ccc(-n3c(SCC(=O)Nc4nccs4)nc4nccnc4c3=O)cc2)s1` [Example Compound 80, 2-((3-(4-(N-(5-Methyl-1,3,4-thiadiazol-2-yl)sulfamoyl)phenyl)-4-oxo-3,4-dihydropteridin-2-yl)thio)-N-(thiazol-2-yl)acetamide], the IC50 is 280 nM.

On to `O=C(CSc1nc2nccnc2c(=O)n1CCc1cccc(F)c1)Nc1ncco1` [Example Compound 3, 2-((3-(3-Fluorophenethyl)-4-oxo-3,4-dihydropteridin-2-yl)thio)-N-(oxazol-2-yl)acetamide], for which the half-inhibitory concentration (IC50) is 2100 nM.

For `O=c1c2nccnc2nc(SCc2nc3cccnc3[nH]2)n1CCc1ccccc1` [Example Compound 73, 2-(((3H-Imidazo[4,5-b]pyridin-2-yl)methyl)thio)-3-phenethylpteridin-4(3H)-one], the IC50 turned out to be 610 nM.

In the case of `COc1cccc2nc(NC(=O)CSc3nc4nccnc4c(=O)n3CCc3ccccc3)sc12` [Example Compound 56, N-(7-Methoxybenzo[d]thiazol-2-yl)-2-((4-oxo-3-phenethyl-3,4-dihydropteridin-2-yl)thio)acetamide], the 50% inhibitory concentration (IC50) was 3100 nM.

Turning to `O=C(CSc1nc2nccnc2c(=O)n1CCc1ccccc1)Nc1nc(-c2cccc([N+](=O)[O-])c2)cs1` [Example Compound 58, N-(4-(3-Nitrophenyl)thiazol-2-yl)-2-((4-oxo-3-phenethyl-3,4-dihydropteridin-2-yl)thio)acetamide], the inhibition at 10 µM is 100%.

For the compound `O=C(CSc1nc2nccnc2c(=O)n1CC(F)(F)c1ccccc1)Nc1nccs1` [Example Compound 18, 2-((3-(2,2-Difluoro-2-phenylethyl)-4-oxo-3,4-dihydropteridin-2-yl)thio)-N-(thiazol-2-yl)acetamide], the 50% inhibitory concentration (IC50) came to 2300 nM.

Turning to `Nc1cccc(-c2csc(NC(=O)CSc3nc4nccnc4c(=O)n3CCc3ccccc3)n2)c1` [Example Compound 59, N-(4-(3-Aminophenyl)thiazol-2-yl)-2-((4-oxo-3-phenethyl-3,4-dihydropteridin-2-yl)thio)acetamide], the 50% inhibitory concentration (IC50) came to 150 nM.

In the case of `COC(=O)c1ccc2[nH]c(CSc3nc4nccnc4c(=O)n3CCc3ccccc3)nc2c1` [Example Compound 75, Methyl 2-(((4-oxo-3-phenethyl-3,4-dihydropteridin-2-yl)thio)methyl)-1H-benzo[d]imidazole-5-carboxylate], the half-inhibitory concentration (IC50) is 2600 nM.

For `C[C@@H](c1ccccc1)n1c(SCc2nc3ccccc3[nH]2)nc2nccnc2c1=O` [Example Compound 90, (S)-2-(((1H-Benzo[d]imidazol-2-yl)methyl)thio)-3-(1-phenylethyl)pteridin-4(3H)-one], the IC50 turned out to be 16000 nM.

For `N#Cc1ccc(NC(=O)CSc2nc3nccnc3c(=O)n2CCc2ccccc2)nc1` [Example Compound 28, N-(5-Cyanopyridin-2-yl)-2-((4-oxo-3-phenethyl-3,4-dihydropteridin-2-yl)thio)acetamide], the concentration for half-maximal inhibition (IC50) amounted to 7600 nM.

In the case of `O=C(CSc1nc2nccnc2c(=O)n1CCc1ccccc1)Nc1nc(-c2ccsc2)cs1` [Example Compound 23, 2-((4-Oxo-3-phenethyl-3,4-dihydropteridin-2-yl)thio)-N-(4-(thiophen-3-yl)thiazol-2-yl)acetamide], the half-inhibitory concentration (IC50) stood at 760 nM.

`CS(=O)(=O)c1ccc(-c2csc(NC(=O)CSc3nc4nccnc4c(=O)n3CCc3ccccc3)n2)cc1` [Example Compound 53, N-(4-(4-(Methylsulfonyl)phenyl)thiazol-2-yl)-2-((4-oxo-3-phenethyl-3,4-dihydropteridin-2-yl)thio)acetamide]: the concentration for half-maximal inhibition (IC50) amounted to 1300 nM.

`O=C(CSc1nc2nccnc2c(=O)n1CCc1cccc(C(F)(F)F)c1)Nc1nccs1` [Example Compound 9, 2-((4-Oxo-3-(3-(trifluoromethyl)phenethyl)-3,4-dihydropteridin-2-yl)thio)-N-(thiazol-2-yl)acetamide]: the IC50 was 1500 nM.

With `CS(=O)(=O)Nc1cccc(-c2csc(NC(=O)CSc3nc4nccnc4c(=O)n3CCc3ccccc3)n2)c1` [Example Compound 12, N-(4-(3-(Methylsulfonamido)phenyl)thiazol-2-yl)-2-((4-oxo-3-phenethyl-3,4-dihydropteridin-2-yl)thio)acetamide], the IC50 amounted to 130 nM.

As for `O=C(CSc1nc2nccnc2c(=O)n1CCc1ccccc1)Nc1nc(-c2cccc(F)c2)cs1` [Example Compound 26, N-(4-(3-Fluorophenyl)thiazol-2-yl)-2-((4-oxo-3-phenethyl-3,4-dihydropteridin-2-yl)thio)acetamide], the IC50 was 1500 nM.

`Cn1ncc2c(=O)[nH]c(CSc3nc4nccnc4c(=O)n3CCc3ccccc3)nc21` [Example Compound 71, 2-(((1-Methyl-4-oxo-4,5-dihydro-1H-pyrazolo[3,4-d]pyrimidin-6-yl)methyl)thio)-3-phenethylpteridin-4(3H)-one]: the IC50 turned out to be 1500 nM.

For the compound `O=C(CSc1nc2nccnc2c(=O)n1CCc1ccccc1)Nc1nc(-c2ccccc2)cs1` [Example Compound 10, 2-((4-Oxo-3-phenethyl-3,4-dihydropteridin-2-yl)thio)-N-(4-phenylthiazol-2-yl)acetamide], the “PI3KC2α inhibitory activity (in words, SAR)” value is given as “functional compounds” and the IC50 stood at 1260 nM.

Take `O=c1c2nccnc2nc(SCc2nc3cc(Cl)ccc3[nH]2)n1CCc1ccccc1` [Example Compound 69, 2-(((5-Chloro-1H-benzo[d]imidazol-2-yl)methyl)thio)-3-phenethylpteridin-4(3H)-one]: the IC50 was 27000 nM.

On to `Cc1nnc(NC(=O)CSc2nc3nccnc3c(=O)n2CCc2cccc(F)c2)s1` [Example Compound 5, 2-((3-(3-Fluorophenethyl)-4-oxo-3,4-dihydropteridin-2-yl)thio)-N-(5-methyl-1,3,4-thiadiazol-2-yl)acetamide], for which the IC50 stood at 6300 nM.

In the case of `O=C(CSc1nc2nccnc2c(=O)n1C1CCc2ccccc21)Nc1nccs1` (stereo not drawn) [Example Compound 19, 2-((3-(2,3-Dihydro-1H-inden-1-yl)-4-oxo-3,4-dihydropteridin-2-yl)thio)-N-(thiazol-2-yl)acetamide], the IC50 was determined as 1600 nM.

Consider `O=C(CSc1nc2nccnc2c(=O)n1Cc1ccco1)Nc1ccccc1F` [Example Compound 33, N-(2-Fluorophenyl)-2-((3-(furan-2-ylmethyl)-4-oxo-3,4-dihydropteridin-2-yl)thio)acetamide], for which the half-maximal inhibitory concentration (IC50) turned out to be 7900 nM.
